Assay results reported in patent publication US20160108406A1, “METHOD OF REGULATING CFTR EXPRESSION AND PROCESSING” (UNIVERSITY OF IOWA RESEARCH FOUNDATION, priority 2014, published 2016).

Legend:
ΔF508-CFTR [1] = details: primary CF airway epithelia; reference 18; cited from earlier work
ΔF508-CFTR [2] = molecular target: T1, ΔF508-CFTR (Homo sapiens, UniProt P13569, DEL508-508); assay: CFTR ubiquitination measurement (anti-HA IP, anti-ubiquitin blot); format: cell-based; details: treatment alone; HeLa-ΔF508-CFTR-HA cells; 72 hrs; MG-132 10 μM last hour; relative to siScr
T1 construct: Here we studied native CFTR, SYVN1 and AMFR gene products in a relevant CF airway epithelial cell line; endogenous in cells; host or cells: CFBE41o- cells (also as polarized ALI cultures)
T1 sequence (P13569 with tags, fused parts or gaps DEL508-508): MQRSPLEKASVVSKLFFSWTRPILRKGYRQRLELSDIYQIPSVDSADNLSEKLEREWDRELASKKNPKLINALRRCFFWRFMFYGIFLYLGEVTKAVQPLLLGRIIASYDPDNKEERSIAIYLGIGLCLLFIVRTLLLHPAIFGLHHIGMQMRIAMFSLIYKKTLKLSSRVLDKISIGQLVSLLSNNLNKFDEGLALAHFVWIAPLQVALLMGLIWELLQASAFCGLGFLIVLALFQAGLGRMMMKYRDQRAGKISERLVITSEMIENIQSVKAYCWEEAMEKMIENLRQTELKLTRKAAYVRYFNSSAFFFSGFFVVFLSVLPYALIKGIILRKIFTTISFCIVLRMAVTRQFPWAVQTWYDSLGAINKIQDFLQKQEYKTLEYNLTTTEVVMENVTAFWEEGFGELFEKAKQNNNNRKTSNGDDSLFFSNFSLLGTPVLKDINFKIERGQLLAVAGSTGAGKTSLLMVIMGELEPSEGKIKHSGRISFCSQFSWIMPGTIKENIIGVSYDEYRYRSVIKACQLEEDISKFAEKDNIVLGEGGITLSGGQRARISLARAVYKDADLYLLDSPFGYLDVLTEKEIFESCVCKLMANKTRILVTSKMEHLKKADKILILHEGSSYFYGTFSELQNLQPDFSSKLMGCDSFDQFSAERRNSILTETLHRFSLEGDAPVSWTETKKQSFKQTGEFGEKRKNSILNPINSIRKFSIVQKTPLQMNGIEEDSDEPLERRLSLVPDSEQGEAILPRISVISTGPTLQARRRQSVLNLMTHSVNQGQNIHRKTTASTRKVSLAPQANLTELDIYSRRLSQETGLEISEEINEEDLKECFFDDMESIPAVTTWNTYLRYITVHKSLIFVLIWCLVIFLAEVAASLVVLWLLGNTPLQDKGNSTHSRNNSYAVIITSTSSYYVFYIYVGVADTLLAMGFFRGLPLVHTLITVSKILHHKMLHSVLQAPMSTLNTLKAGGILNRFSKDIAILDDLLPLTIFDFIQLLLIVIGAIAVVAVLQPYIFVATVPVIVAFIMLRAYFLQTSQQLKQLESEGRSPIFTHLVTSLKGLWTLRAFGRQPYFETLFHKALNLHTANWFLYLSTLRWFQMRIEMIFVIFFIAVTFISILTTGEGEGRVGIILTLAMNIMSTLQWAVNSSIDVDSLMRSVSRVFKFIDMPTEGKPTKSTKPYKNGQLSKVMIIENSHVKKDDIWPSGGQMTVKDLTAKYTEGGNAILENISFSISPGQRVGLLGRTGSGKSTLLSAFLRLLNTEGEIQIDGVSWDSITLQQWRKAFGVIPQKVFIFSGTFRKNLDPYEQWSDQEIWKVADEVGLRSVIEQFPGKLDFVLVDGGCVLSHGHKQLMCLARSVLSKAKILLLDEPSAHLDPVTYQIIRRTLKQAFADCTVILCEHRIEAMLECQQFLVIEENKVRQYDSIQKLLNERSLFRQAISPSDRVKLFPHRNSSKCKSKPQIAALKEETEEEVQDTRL
Experimental: Cells were treated with 10 μM MG-132 in the last 1-hour of incubation, and then lysed in lysis buffer (1% Triton, 25 mM Tris pH 7.4, 150 mM NaCl, protease inhibitors (cOmplete™, mini, EDTA-free, Roche), 5 mM N-ethylmaleimide (NEM) and 20 μM MG-132) for 30 min at 4° C. The lysates were centrifuged at 14,000 rpm for 20 min at 4° C., and the supernatant quantified by BCA Protein Assay kit (Pierce). CFTR was precipitated with the anti-HA antibody. The immunoprecipitates were analyzed by immunoblotting with anti-Ub and anti-HA antibodies. CFTR ubiquitination level with molecular masses >180 kDa was measured by densitometry and normalized for the CFTR level in the precipitate.
Immunoprecipitation (IP) experiments were performed in HeLa cells stably expressing ΔF508-CFTR-HA. To IP ΔF508-CFTR, cells were lysed (as described above), and supernatant (20-50 μg of protein) was incubated with either anti-HA (to IP CFTR) or anti-AMFR for 1 h at 4° C., followed by incubation with protein G-agarose (Invitrogen) for 1 h at 4° C. Immunoprecipitates were washed 4 times with lysis buffer and eluted in 6× sample-SDS buffer. Samples were analyzed by immunoblotting as described above.

In the case of “miR-138 mimic: synthetic nucleic acid with miR-138-like activity, sense SEQ ID NO: 4, antisense SEQ ID NO: 5”, the “ΔF508-CFTR expression and Cl− transport” value (ΔF508-CFTR [1]) is given as “concomitantly increased ΔF508-CFTR expression and Cl^− transport”.
With O=C(Nc1ncc(C(c2ccccc2Cl)N2CCC(O)C2)s1)C1(c2ccc3c(c2)OCO3)CC1 (centres unmarked) [C18, 1-(benzo[d][1,3]dioxol-5-yl)-N-(5-((2-chlorophenyl)(3-hydroxypyrrolidin-1-yl)methyl)thiazol-2-yl)cyclopropanecarboxamide] the ΔF508-CFTR ubiquitination (ΔF508-CFTR [2]) was “little impact on ΔF508-CFTR ubiquitination levels”.
